Reference: publication PMC5978685, “Design, Synthesis, and Evaluation of Novel Immunomodulatory Small Molecules Targeting the CD40–CD154 Costimulatory Protein-Protein Interaction” (Molecules : A Journal of Synthetic Chemistry and Natural …, 2018)
Entries after “also recorded” stand apart in the source; their conditions may differ.

Key:
[1] = tested on: alloantigen-induced T cell response in draining popliteal lymph node; test: alloantigen-induced T cell expansion in draining lymph node; type: in vivo, mouse (Balb/c); conditions: Balb/c mice, DBA-2 splenocytes in footpad; 10–20 mg/kg s.c. b.i.d.; p < 0.0001 vs vehicle
Method: The most promising compounds of the present series were evaluated for in vivo activity using the same model of alloantigen-induced T cell expansion in the draining lymph nodes (DLNs) that was described before. This procedure involved injection of splenocytes isolated from DBA-2 mice into the footpad of Balb/c recipients. Within three full days, this causes a significant increase in the number of cells in the draining popliteal lymph node, and this is inhibited by compounds with immunosuppressive activity.
The ability to inhibit alloantigen-induced T cell response in a draining lymph node was tested as described before. In brief, BALB/c mice (10–12 weeks old, female) received a footpad injection of 1 × 10^7 splenocytes isolated from DBA-2 mice (10–12 weeks old, male). CD154 antibody (MR-1; 20 mg/kg, day −1 and 0) or test compounds (20–60 mg/kg; b.i.d. from day −1 to 3, in 20% HPβCD) were administered s.c., and the draining popliteal lymph nodes (DLNs) were collected 3 days after the alloantigen challenge. DLN cells were counted and data are shown as mean ± SD (n = 3–4 per group).
(§1) All binding inhibition and cell assays were tested in duplicate or triplicate per plates, and assays were performed as at least three independent experiments. As before, binding and cytotoxicity data were converted to percent inhibition and fitted with standard log inhibitor vs. normalized response models using nonlinear regression in GraphPad Prism (GraphPad, La Jolla, CA, USA) to establish half-maximal (median) inhibitory concentration (IC50) or median lethal concentration (LC50) values. Cell assay data were fitted with a similar model that also allowed for a variable slope using the log inhibitor vs. normalized response (variable slope) model from Prism with a Hill slope (n) shared across all compounds. Cell assays and draining lymph node data were analyzed by one-way repeated-measures analysis of variance (ANOVA) followed by Dunnett’s multiple comparison test as a post hoc test for individual differences using GraphPad Prism and a significance level of p < 0.05 for all comparisons.
Figure 6 Inhibition of alloantigen-induced T cell response in a draining lymph node by compounds 6, 15, 18, and 19. Mice (Balb/c) received a footpad injection of allogeneic splenocytes (isolated from DBA-2 mice) and were treated with anti-CD154 antibody (MR-1; 20 mg/kg, day −1 and 0) or compounds as shown (10–40 mg/kg, b.i.d. from day −1 to 3, s.c. in 20% HPβCD). Draining (popliteal) lymph nodes were collected three days after the alloantigen challenge and cells were counted. Data are shown as mean ± SD. Significant differences compared to vehicle-treated controls are indicated by asterisks (**** p < 0.0001; one-way ANOVA followed by Dunnett’s multiple comparison test).

[2] = biological target: T1, CD40–CD154 (CD40L) (Homo sapiens, UniProt P29965); test: cell-free ELISA-type binding inhibition assay, CD40–CD154; conditions: for IC50: cell-free CD40–CD154 binding inhibition, read-out: CD40 IC50; for selectivity toward CD40–CD154 against all other PPIs tested: vs OX40–OX40L, BAFFR–BAFF, TNF-R1–TNF-α
T1 construct: purchased Enzo Life Sciences
T1 sequence (P29965 116-261 limits assumed): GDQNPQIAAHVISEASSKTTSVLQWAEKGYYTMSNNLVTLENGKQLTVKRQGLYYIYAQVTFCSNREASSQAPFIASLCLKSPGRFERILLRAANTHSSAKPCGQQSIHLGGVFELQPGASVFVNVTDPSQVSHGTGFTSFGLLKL
Text: As a first assessment, the CD40–CD154 inhibitory activity of compounds 6–19 (Figure 2, Table 1) was quantified using a cell-free in vitro binding inhibition assay as described before. Data fitted with typical sigmoidal concentration dependence curves (log inhibitor versus response model in GraphPad Prism, Hill slope n = 1) are summarized in Figure 3A. […] Polymolecular conglomeration and/or aggregation is often a cause of promiscuous inhibition in screening assays. Therefore, just as in our previous work, we checked for this, and we confirmed for several compounds that inhibition due to aggregation is not the case by retesting inhibitory activity in the presence of a non-ionic detergent (Triton-X 100, 0.01%) as recommended for the detection of such effects.
Binding inhibition assays were performed in a 96-well cell-free format as described before. Briefly, microtiter plates (Nunc F Maxisorp, 96-well; Thermo Fisher Scientific, Waltham, MA, USA) were coated overnight at 4 °C with 100 μL/well of Fc-conjugated receptors diluted in PBS pH 7.2. This was followed by blocking with 200 μL/well of blocking solution (PBS pH 7.2, 0.05% Tween-20, 1% BSA) for 1 h at RT. Then, plates were washed twice using washing solution (PBS pH 7.4, 0.05% Tween-20) and tapped dry before the addition of the appropriate FLAG tagged ligands along with different concentrations of tested dyes diluted in binding buffer (100 mM HEPES, 0.005% BSA pH 7.2) to give a total volume of 100 μL/well. After 1 h incubation, three washes were conducted, and anti-FLAG HRP conjugate was used to detect the bound FLAG-tagged ligand. Plates were washed four times before the addition of 120 μL/well of HRP substrate TMB (3,3′,5,5′-tetramethylbenzidine) and kept in the dark for up to 15 min. The reaction was stopped using 30 μL of 1M H2SO4, and the absorbance value was read at 450 nm. The concentrations of receptors used were 0.3 μg/mL for CD40, TNF-R1, and BAFFR; 0.6 μg/mL for OX40. The concentrations of the ligands were fixed at 0.02 μg/mL for CD154 and TNF-α, 0.06 μg/mL for OX40L, and 0.03 μg/mL for BAFF. These values were selected following preliminary testing to optimize response (i.e., to produce a high-enough signal at conditions close to half-maximal response, EC50). […] To verify that inhibition is not due to colloidal aggregation, CD40 binding inhibition was also measured in the presence of the non-ionic detergent Triton-X 100 (0.01%), as recommended for the detection of such effects.
as §1
Data are (counterclockwise) for human CD40–CD154 (CD40L) (A); OX40–OX40L (B); BAFFR–BAFF (C); and TNF-R1–TNFα (D) and were fitted with standard binding curves. Data are average ± SD (normalized to percent binding) for n = 3 independent experiments with duplicates for each condition.

| SMILES | inhibition of alloantigen-induced T cell expansion in draining lymph node [1] | IC50 [2] | selectivity toward CD40–CD154 against all other PPIs tested [2] | selectivity toward CD40–CD154 against all other PPIs tested ([2]; listed as DRI-C21095) |
| --- | --- | --- | --- | --- |
| O=C(Nc1ccc(-c2ccc(C(=O)Nc3cccc4cccc(S(=O)(=O)O)c34)cc2)cc1)c1ccc([N+](=O)[O-])cc1 [Compound 6, 8-(4′-(4-Nitrobenzamido)biphenyl-4-ylcarboxamido)naphthalene-1-sulfonic acid] | highly significant inhibitory activity; also recorded: inhibited the alloantigen-induced T cell response in this model in statistically significant manner | 87 nM | – | – |
| COC(=O)c1ccc(-c2ccc(C(=O)Nc3ccc(-c4ccc(C(=O)Nc5cccc6cccc(S(=O)(=O)O)c56)cc4)cc3)cc2)cc1 [Compound 15, 8-(4′-(4′-(Methoxycarbonyl)-[1,1′-biphenyl]-4-carboxamido)-[1,1′-biphenyl]-4-carboxamido)naphthalene-1-sulfonic acid] | highly significant inhibitory activity; also recorded: inhibited the alloantigen-induced T cell response in this model in statistically significant manner | 19 nM | > 30 fold | more than thirty-fold |
| O=C(Nc1ccc(-c2ccc(C(=O)Nc3cccc4cccc(S(=O)(=O)O)c34)cc2)nc1)c1ccc([N+](=O)[O-])cc1 [Compound 18, 8-(4-(5-(4-Nitrobenzamido)pyridin-2-yl)benzamido)naphthalene-1-sulfonic acid] | highly significant inhibitory activity; also recorded: inhibited the alloantigen-induced T cell response in this model in statistically significant manner | 1340 nM | – | – |
